Results from patent US20100196464A1, “ORLISTAT PHARMACEUTICAL FORMULATIONS” (DR. REDDY'S LABORATORIES LIMITED, priority 2007, published 2010).

Key:
[1] = Particle size distribution; assay type: physicochemical
Source text: The term “average particle size” refers to particle sizes represented by D(0.5), wherein 50% of particles in a powder have sizes greater than, and 50% of particles have sizes less than, a specified value.
Various parameters impacting the preparation of solid oral dosage forms include the physical properties of active ingredients as well as those of the final blends of active ingredients with excipients, wherein the physical properties include flow properties, particle sizes (such as determined by sieve analyzers, electrical conductance instruments such as a Coulter counter, and laser light diffraction particle size analyzers such as the instruments available from Malvern Instruments, Ltd., Malvern, Worcestershire, United Kingdom), bulk densities and tapped densities, compressibility indexes, Hausner ratios (determined by USP density apparatus), flow properties (such as determined by Flowdex apparatus), etc.
The percent of particles with different dimensions that exist in a powder is called the particle size distribution. It is represented in certain ways. Particle size is the maximum dimension of a particle, normally expressed in units of μm. Particle size distributions can be expressed in terms of D(0.1), D(0.5), D(0.9) and D [4,3]. The D(0.1), D(0.5) and D(0.9) represent the 10th, median or the 50th percentile, and the 90th percentile of the particle size distribution, respectively. They can be expressed as volume, weight, or surface percentages. For example when measured by volume, D(0.1), D(0.5), D(0.9) is a value of the distribution such that 10%, 50%, 90% by volume of the particles have a size of this value or less, or is the percentage of particles smaller than that size. D(0.5) is also known as median diameter of particle. It is one of the important parameters representing characteristics of particle of powder. For a sample, if D(0.5)=5 μm, it means that 50% of the particles are smaller than 5 μm. Similarly, if D(0.1)=5 μm, 10% by volume of the particles are less than or equal to 5 μm, and if D(0.9)=5 μm, 90% of the particles are less than or equal to 5 μm. D[4,3] is the volume moment mean of the particles or the volume weighted particle size.

[2] = cited from earlier work
[3] = physiological pH range; cited from earlier work
[4] = Bulk density and tapped density; assay type: physicochemical; settings: orlistat used in the formulation of Example 6
Source text: Other important physicochemical characteristics of powders are the density properties such as bulk and tapped density, weight variation and flow properties such as angle of repose. Bulk density is the undisturbed packing density of that substance and tapped bulk density relates to the packing density after tapping a bed of substance until no change in the packing density is seen. Bulk density and tapped density, can be determined using compendial bulk density apparatus, such as the method given in Test 616 “Bulk Density and Tapped Density,” United States Pharmacopeia 29, United States Pharmacopeial Convention, Inc., Rockville, Md., 2005 (“USP”). Weight variation can be determined using the method given in United States Pharmacopeia 29.

[5] = orlistat used in the formulation of Example 1
[6] = orlistat used in the formulation of Example 6

D(0.1) [1, 5]: 1.8 μm | D(0.5) [1, 5]: 8.6 μm | D(0.9) [1, 5]: 24.5 μm | D(0.1) [1, 6]: 18.7 μm | D(0.5) [1, 6]: 84.2 μm | D(0.9) [1, 6]: 171.8 μm | Bulk density [4]: 0.424 g/mL | Tapped density [4]: 0.571 g/mL
Structure (SMILES): CCCCCCCCCCC[C@@H](C[C@@H]1OC(=O)[C@H]1CCCCCC)OC(=O)[C@H](CC(C)C)NC=O [Orlistat, (S)-1-[[(2S,3S)-3-hexyl-4-oxo-2-oxetanyl]methyl]-dodecyl ester]
Solubility in chloroform ([2]; chloroform): freely soluble | Solubility in ethanol ([2]; ethanol): very soluble | Solubility in methanol ([2]; methanol): very soluble | Solubility in water ([2]; water): practically insoluble | pKa [3]: no pKa within the physiological pH range
